assay: Inhibition of SDS-activated 20S proteasome activity in rabbit muscle; assay type: tissue-based, Oryctolagus cuniculus, Muscle tissue

| Compound | pKi |
| --- | --- |
| CC(C)C[C@H](NC(=O)[C@H](Cc1ccc(O)cc1)NC(=O)N1CCOCC1)B(O)O | 9.29 |
| CC(C)C[C@H](NC(=O)[C@H](CC(C)C)N(C)C(=O)OCc1ccccc1)B(O)O | 6 |
| CC(C)C[C@H](NC(=O)[C@H](Cc1c[nH]c2ccccc12)NC(=O)N1CCOCC1)B(O)O | 8.52 |
| CC(C)C[C@H](NC(=O)[C@H](Cc1ccccn1)NC(=O)N1CCOCC1)B(O)O | 8.2 |
| CC(C)C[C@H](NC(=O)[C@H](Cc1ccccc1)NC(=O)N1CCOCC1)B(O)O | 9.09 |
| CB(C)[C@H](CC(C)C)NC(=O)[C@H](Cc1cccc2ccccc12)NC(=O)N1CCOCC1 | 6.19 |
| CC(C)C[C@H](NC(=O)[C@H](Cc1ccc2ncccc2c1)NC(=O)N1CCOCC1)B(O)O | 8.22 |
| CC(=O)N[C@@H](Cc1cccnc1)C(=O)N[C@@H](CC(C)C)B(O)O | 8.27 |
| CC(C)C[C@H](NC(=O)[C@H](Cc1cccnc1)NC(=O)N1CCOCC1)B(O)O | 8.89 |
| CC(C)C[C@H](NC(=O)[C@@H](N)Cc1ccccn1)B(O)O | 7.5 |
| CC(C)C[C@H](NC(=O)[C@H](Cc1ccc(OCc2ccccc2)cc1)NC(=O)N1CCOCC1)B(O)O | 9.64 |
| CC(C)C[C@H](NC(=O)[C@H](Cc1cccnc1)NS(C)(=O)=O)B(O)O | 8.2 |
| B[C@H](CC(C)C)NC(=O)[C@H](Cc1cccc2ccccc12)NC(=O)N1CCOCC1 | 8.7 |
| CC(C)C[C@H](NC(=O)[C@H](Cc1ccccn1)NC(=O)C1CCCCC1)B(O)O | 8.96 |
| CC(C)C[C@H](NC(=O)[C@H](Cc1cccc2ccccc12)NS(C)(=O)=O)B1OCCNCCO1 | 9.55 |
| CC(C)C[C@H](NC(=O)[C@H](Cc1c[nH]cn1)NC(=O)OCc1ccccc1)B(O)O | 7.6 |
| CC(C)C[C@H](NC(=O)[C@H](Cc1ccccn1)NC(=O)c1cnccn1)B(O)O | 8.15 |
| CC(C)C[C@H](NC(=O)[C@H](Cc1c[nH]c2ccccc12)NS(C)(=O)=O)B(O)O | 8.24 |
| CC(C)CC(NC(=O)[C@H](Cc1cccc2ccccc12)NC(=O)OCc1ccccc1)B1O[C@@H]2[C@H]3C[C@@H](C[C@]2(C)O1)C3(C)C (single isomer, unassigned) | 10 |
| CC(C)C[C@H](NC(=O)[C@H](Cc1ccccc1)NC(=O)c1ccoc1)B(O)O | 9.77 |
| CC(C)C[C@H](NC(=O)[C@H](CC(C)C)NC(=O)OCc1ccccc1)B(O)O | 8.52 |
| CC(C)C[C@H](NC(=O)[C@H](Cc1cccc2ccccc12)NC(=O)N1CCOCC1)B1OCCNCCO1 | 9.82 |
| CC(C)C[C@H](NC(=O)[C@H](Cc1ccc2ccccc2n1)NC(=O)N1CCOCC1)B(O)O | 8.66 |
| CC(C)C[C@H](NC(=O)[C@@H](N)Cc1cccnc1)B(O)O | 6.82 |
| CC(C)C[C@H](NC(=O)[C@H](Cc1ccc(OCc2ccccn2)cc1)NC(=O)N1CCOCC1)B(O)O | 9.7 |
| CC(C)CC(NC(=O)C(CC(C)C)NC(=O)OCc1ccccc1)B1O[C@@H]2[C@H]3C[C@@H](C[C@]2(C)O1)C3(C)C (single isomer, unassigned) | 6.92 |
| CB(C)[C@H](CC(C)C)NC(=O)[C@H](CCc1ccccc1)NC(=O)N1CCOCC1 | 8.66 |

Other lines, results leading:

| pKi | Compound |
| --- | --- |
| 9.82 | CC(C)C[C@H](NC(=O)[C@H](Cc1ccccc1)NC(=O)c1ccccc1)B(O)O |
| 9.85 | CC(C)C[C@H](NC(=O)[C@H](Cc1cccc2ccccc12)NC(=O)c1cnc2ccccc2n1)B(O)O |
| 9.6 | CC(C)C[C@H](NC(=O)[C@H](Cc1ccccc1)NC(=O)c1cccnc1)B(O)O |
| 10.12 | CC(C)C[C@H](NC(=O)[C@H](Cc1cccc2ccccc12)NC(=O)c1ccc2ccccc2n1)B(O)O |
| 10.52 | CC(C)C[C@H](NC(=O)[C@H](Cc1cccc2ccccc12)NC(=O)C1CCCCC1)B(O)O |
| 9.72 | CC(C)C[C@H](NC(=O)[C@H](Cc1ccccc1)NC(=O)c1ccc2ccccc2n1)B(O)O |
| 9.02 | CC(C)C[C@H](NC(=O)[C@H](Cc1cccc2ccccc12)N(C)C(=O)OCc1ccccc1)B(O)O |
| 9.38 | CC(C)C[C@H](NC(=O)[C@H](Cc1ccccc1)NC(=O)c1ccccn1)B(O)O |
| 9.08 | CC(C)CC(NC(=O)[C@H](Cc1ccc(F)cc1)NC(=O)c1ccccn1)B(O)O (single isomer, unassigned) |
| 8.12 | CC(C)C[C@H](NC(=O)[C@@H](N)Cc1cccc2ccccc12)B(O)O |
| 8.55 | CB(C)[C@H](CC(C)C)NC(=O)[C@H](CCc1ccccc1)NC(=O)c1ccc2ccccc2n1 |
| 9.02 | CC(C)C[C@H](NC(=O)[C@H](Cc1ccc(F)cc1)NC(=O)c1cnccn1)B(O)O |
| 9.85 | CC(C)C[C@H](NC(=O)[C@H](Cc1ccccc1)NC(=O)NCc1ccccc1)B(O)O |
| 10.06 | CC(C)C[C@H](NC(=O)[C@H](Cc1cccc2ccccc12)NC(=O)c1ccccc1)B(O)O |
| 7 | CB(O)[C@H](CC(C)C)NC(=O)[C@H](Cc1cccc2ccccc12)NC(=O)N1CCOCC1 |
| 8.36 | CC(C)C[C@H](NC(=O)[C@H](Cc1ccccc1)NS(=O)(=O)c1cccc2cccnc12)B(O)O |

| pKi | Compound |
| --- | --- |
| 10.08 | CC(C)C[C@H](NC(=O)[C@H](Cc1cccc2ccccc12)NC(=O)OCc1ccccc1)B(O)O |
| 9.77 | CC(=O)N[C@@H](Cc1cccc2ccccc12)C(=O)N[C@@H](CC(C)C)B(O)O |
| 8.89 | CC(=O)N[C@@H](Cc1c[nH]c2ccccc12)C(=O)N[C@@H](CC(C)C)B(O)O |
| 9.89 | CC(C)C[C@H](NC(=O)[C@H](Cc1ccccc1)NC(=O)OCc1ccccc1)B(O)O |
| 7.54 | CC(C)C[C@H](NC(=O)[C@H](Cc1ccccn1)NS(=O)(=O)c1cccc2cccnc12)B(O)O |
| 8.41 | CC(C)C[C@@H](NC(=O)[C@H](N)Cc1cccc2ccccc12)B(O)O.Cl (single isomer, unassigned) |
| 9.22 | CC(C)C[C@H](NC(=O)[C@H](Cc1ccccc1)NC(=O)c1cnccn1)B(O)O [BORTEZOMIB] |
| 9.14 | CC(C)CC(NC(=O)[C@H](Cc1cccc2ccccc12)NC(=O)N1CCOCC1)B(O)O (single isomer, unassigned) |
| 9.12 | CC(C)C[C@H](NC(=O)[C@H](Cc1ccccn1)NC(=O)c1ccccc1)B(O)O |
| 9.82 | CC(C)CC(NC(=O)[C@H](Cc1ccccc1)NC(=O)CCc1ccccc1)B(O)O (single isomer, unassigned) |
| 9.77 | Cc1ccc(S(=O)(=O)N[C@@H](Cc2cccc3ccccc23)C(=O)N[C@@H](CC(C)C)B(O)O)cc1 |
| 8.77 | CC(C)CC(NC(=O)[C@H](Cc1cccc2ccccc12)NS(=O)(=O)c1cccc2cccnc12)B(O)O (single isomer, unassigned) |
| 8.85 | CC(C)C[C@H](NC(=O)[C@H](Cc1ccccn1)NC(=O)c1ccc2ccccc2n1)B(O)O |
| 8.96 | CN[C@@H](Cc1cccc2ccccc12)C(=O)N[C@@H](CC(C)C)B(O)O |
| 9.85 | CC(C)C[C@H](NC(=O)[C@H](Cc1ccccc1)NC(=O)c1cc[nH]c1)B(O)O |

Reference: ChEMBL document CHEMBL1137708, “3D-QSAR studies of boron-containing dipeptides as proteasome inhibitors with CoMFA and CoMSIA methods” (Eur J Med Chem, 2009)
